Literature values, collected in article PMC8252455, “Prediction of a clinically effective dose of THY1773, a novel V 1B receptor antagonist, based on preclinical data” (Biopharmaceutics & Drug Disposition, 2021).

Test system: depressive symptoms
Parameters: method as in Griebel, Beeské, & Stahl, 2012
Conditions: patients with MDD; ref Griebel, Beeské, & Stahl, 2012; cited from earlier work

COc1ccc(S(=O)(=O)N2C(=O)[C@@](c3ccccc3OC)(N3C[C@H](O)C[C@H]3C(=O)N(C)C)c3cc(Cl)ccc32)c(OC)c1 [SSR149415]
Antidepressant effect in MDD trials: failed to demonstrate clear antidepressant effects
